Read-outs that look alike come from different tables or passages of the source.
Experiments:
MCF-7 tumors [1] = format: in vivo; conditions: for T/C / TGI: PG-D37
Procedure: The in vivo anti-tumor efficacy of the compound of formula (I) either alone or in combination with fulvestrant on MCF-7 breast tumor model on female Balb/c nude mice was assessed. MCF-7 cells are a breast cancer cell line that is HR+HER2−. See Booms et al., (2019) Cancer Epidemiol Biomarkers Prev 28(10); 1735-1745, which is hereby incorporated by reference.
The study was in two parts. The first part was designed to measure tumor growth inhibition (TGI). The second part was used to measure pharmacokinetic and pharmacodynamic (PKPD) parameters. In the studies, the compound of formula (I) was dosed orally (po) and fulvestrant was dosed subcutaneously. […]
The MCF-7 tumor cells were maintained in vitro in MEM supplemented with 10% heat inactivated fetal bovine serum at 37° C. in an atmosphere of 5% CO2 in air. The tumor cells were routinely subcultured twice weekly. The cells growing in an exponential growth phase were harvested and counted for tumor inoculation.
Each mouse was inoculated subcutaneously at the right flank with MCF-7 (10*10^6) cells in 0.2 mL of PBS mixed with Matrigel (50:50) for tumor development. 17β-Estradiol (0.36 mg, 60-day release) pellets (Innovative Research of America Cat. No.: SE-121, pellet size: 3.0 mm) were implanted 2 days before cell inoculation.
In TGI part, the treatments was started on day 7 after cell inoculation when the average tumor volume reaches 173 mm^3. 72 mice were selected and assigned into 9 groups. The testing articles were administrated to the mice according to Table 1.
For TGI part, the major endpoint was to see if the tumor growth could be delayed or mice could be cured. Tumor size was measured twice weekly in two dimensions using a caliper, and the volume was expressed in mm^3 using the formula: V=0.5 a×b^2 where a and b are the long and short diameters of the tumor, respectively. The tumor sizes are then used for the calculation of T/C and TGI values.
The T/C value (in percent) is an indication of antitumor effectiveness; T and C are the mean volume of the treated and control groups, respectively, on a given day.
TGI was calculated for each group using the formula: TGI (%)=[1−(Ti−T0)/(Vi−V0)]×100; Ti is the average tumor volume of a treatment group on PG-Di, T0 is the average tumor volume of the treatment group on the day of treatment start, Vi is the average tumor volume of the vehicle control group on the same day with Ti, and V0 is the average tumor volume of the vehicle group on the day of treatment start.
For comparison among of tumor volume of groups 2-9 and group 1, a one-way ANOVA was performed. All the analysis were conducted using GraphPad Prism software. p<0.05 was considered to be statistically significant.

SK-MEL-3 = test: Cell viability assay, melanoma cell line SK-MEL-3; format: cell-based
Procedure: 4.4.4 Compound Plate (10×) Preparation and Compound Treatment • 10× concentrate compound plate preparation: Add 198 μL of assay medium into each well of the V-bottom plate; then transfer 2 μL of the stock compound solution of each concentration from the stock plate. Add 2 μL of DMSO into the Blank and Control wells. Pipette up and down to mix well. This V-plate is designated as the 10× concentrate compound plate. • For day 0 plate, add 15 μL of the DMSO-medium into the Control wells. The final DMSO concentration was 0.1%. Then directly proceed to cell viability assay. • For assay plate, add 15 μL of the compound-medium of each well from the 10× concentrate compound plate into the cells in 96-well assay plate according to the plate map. Add 15 μL of the DMSO-medium into the Blank and Control wells. The final DMSO concentration was 0.1%. • Return the assay plate into incubator and incubate for 6 days.
The procedures were performed according to the Promega CellTiter-Glo Luminescent Cell Viability Assay Kit manual (Promega-G7573). • The CellTiter-Glo buffer was thawed and equilibrated to room temperature prior to use. • CellTiter-Glo Substrate was equilibrated to room temperature prior to use. • The entire liquid volume of CellTiter-Glo Buffer was transferred into the amber bottle containing CellTiter-Glo Substrate to reconstitute the lyophilized enzyme/substrate mixture. […] Plates were covered with aluminum foil to protect from light. • The contents were mixed for 2 minutes on an orbital shaker to induce cell lysis. • The plate was incubated at room temperature for 20 minutes to stabilize luminescent signal. • Record luminescence on the 2104 EnVision plate reader.
Inhibition rate (IR) of the tested compounds was determined by the following formula: IR (%)=(1−(RLU compound−RLU day0)/(RLU control−RLU day0))*100%. The inhibitions of different dose of compound were calculated in Excel file, and then were used to plot inhibition curves and evaluate related parameters, such as Min (%), Max (%) and GI50. […]

MCF-7 tumors [2] = format: in vivo; conditions: for T/C / TGI / Tumor Size: PG-D49
Procedure: The in vivo anti-tumor efficacy of the compound of formula (I) either alone or in combination with fulvestrant on MCF-7 breast tumor model on female Balb/c nude mice was evaluated. The protocol was he same as described in Example 1 with the exception that the dosing schedule of fulvestrant was modified.

For `CC(C)N1CCOc2c(F)cc(-c3nc(Nc4ccc(C5CCN(C)CC5)cn4)ncc3F)cc21` [Compound (I), 5-fluoro-4-(8-fluoro-4-isopropyl-3,4-dihydro-2H-benzo[b][1,4]oxazin-6-yl)-N-(5-(1-methylpiperidin-4-yl)pyridin-2-yl)pyrimidin-2-amine], the “Tumor volume (mean ± SEM)” value (MCF-7 tumors [1]; 10 mg/kg PO QD, day 0) was 173 ± 12 mm^3, the “Tumor volume (mean ± SEM)” value (MCF-7 tumors [1]; 10 mg/kg PO QD, day 3) was 195 ± 14 mm^3 and the “Tumor volume (mean ± SEM)” value (MCF-7 tumors [1]; 10 mg/kg PO QD, day 6) was 188 ± 25 mm^3. For the same compound, the “Tumor volume (mean ± SEM)” value (MCF-7 tumors [1]; 10 mg/kg PO QD, day 9) was 185 ± 15 mm^3, the “Tumor volume (mean ± SEM)” value (MCF-7 tumors [1]; 10 mg/kg PO QD, day 13) was 179 ± 21 mm^3 and the “Tumor volume (mean ± SEM)” value (MCF-7 tumors [1]; 10 mg/kg PO QD, day 16) was 187 ± 22 mm^3. For the same compound, the “Tumor volume (mean ± SEM)” value (MCF-7 tumors [1]; 10 mg/kg PO QD, day 20) was 228 ± 36 mm^3, the “Tumor volume (mean ± SEM)” value (MCF-7 tumors [1]; 10 mg/kg PO QD, day 23) was 268 ± 37 mm^3 and the “Tumor volume (mean ± SEM)” value (MCF-7 tumors [1]; 10 mg/kg PO QD, day 27) was 310 ± 56 mm^3. The “Tumor volume (mean ± SEM)” value (MCF-7 tumors [1]; 10 mg/kg PO QD, day 30) was 358 ± 60 mm^3, the “Tumor volume (mean ± SEM)” value (MCF-7 tumors [1]; 10 mg/kg PO QD, day 34) was 446 ± 93 mm^3 and the “Tumor volume (mean ± SEM)” value (MCF-7 tumors [1]; 10 mg/kg PO QD, day 37) was 505 ± 116 mm^3. For the same compound, the “Tumor volume (mean ± SEM)” value (MCF-7 tumors [1]; 10 mg/kg PO QD, day 41) was 530 ± 113 mm^3, the “Tumor volume (mean ± SEM)” value (MCF-7 tumors [1]; 10 mg/kg PO QD, day 44) was 468 ± 99 mm^3 and the “Tumor volume (mean ± SEM)” value (MCF-7 tumors [1]; 10 mg/kg PO QD, day 48) was 472 ± 120 mm^3. The T/C (MCF-7 tumors [1]; 10 mg/kg QD) was 25.18%, the TGI (MCF-7 tumors [1]; 10 mg/kg QD) was 81.88% and the “Tumor volume (mean ± SEM)” value (MCF-7 tumors [1]; 30 mg/kg PO QD, day 0) was 173 ± 11 mm^3. For the same compound, the “Tumor volume (mean ± SEM)” value (MCF-7 tumors [1]; 30 mg/kg PO QD, day 3) was 192 ± 16 mm^3, the “Tumor volume (mean ± SEM)” value (MCF-7 tumors [1]; 30 mg/kg PO QD, day 6) was 151 ± 24 mm^3 and the “Tumor volume (mean ± SEM)” value (MCF-7 tumors [1]; 30 mg/kg PO QD, day 9) was 153 ± 19 mm^3. The “Tumor volume (mean ± SEM)” value (MCF-7 tumors [1]; 30 mg/kg PO QD, day 13) was 147 ± 17 mm^3, the “Tumor volume (mean ± SEM)” value (MCF-7 tumors [1]; 30 mg/kg PO QD, day 16) was 154 ± 18 mm^3 and the “Tumor volume (mean ± SEM)” value (MCF-7 tumors [1]; 30 mg/kg PO QD, day 20) was 159 ± 21 mm^3. For the same compound, the “Tumor volume (mean ± SEM)” value (MCF-7 tumors [1]; 30 mg/kg PO QD, day 23) was 175 ± 23 mm^3, the “Tumor volume (mean ± SEM)” value (MCF-7 tumors [1]; 30 mg/kg PO QD, day 27) was 168 ± 25 mm^3 and the “Tumor volume (mean ± SEM)” value (MCF-7 tumors [1]; 30 mg/kg PO QD, day 30) was 186 ± 28 mm^3. The “Tumor volume (mean ± SEM)” value (MCF-7 tumors [1]; 30 mg/kg PO QD, day 34) was 193 ± 34 mm^3, the “Tumor volume (mean ± SEM)” value (MCF-7 tumors [1]; 30 mg/kg PO QD, day 37) was 227 ± 41 mm^3 and the “Tumor volume (mean ± SEM)” value (MCF-7 tumors [1]; 30 mg/kg PO QD, day 41) was 228 ± 51 mm^3. The “Tumor volume (mean ± SEM)” value (MCF-7 tumors [1]; 30 mg/kg PO QD, day 44) was 234 ± 52 mm^3, the “Tumor volume (mean ± SEM)” value (MCF-7 tumors [1]; 30 mg/kg PO QD, day 48) was 206 ± 39 mm^3 and the T/C (MCF-7 tumors [1]; 30 mg/kg QD) was 11.32%. The TGI (MCF-7 tumors [1]; 30 mg/kg QD) was 97.06%, the “Toxicity (body weight as indirect measurement)” value (MCF-7 tumors [1]; MCF-7 tumor-bearing mice, 10 or 30 mg/kg PO QD, alone or with fulvestrant, 49 days) was “not toxic” and the GI50 (SK-MEL-3; Homo sapiens, SK-MEL3, read-out: Absolute GI50) was 174 nM. For the same compound, the “Max (%)” value (SK-MEL-3; inhibition rate) was 111.93%, the “Min (%)” value (SK-MEL-3; inhibition rate) was −1.51% and the T/C (MCF-7 tumors [2]; 10 mg/kg PO QD) was 51.74%. For the same compound, the TGI (MCF-7 tumors [2]; 10 mg/kg PO QD) was 55.83%, the “Tumor Size” value (MCF-7 tumors [2]; 10 mg/kg PO QD) was 611 mm^3 and the T/C (MCF-7 tumors [2]; 30 mg/kg PO QD) was 14.39%. The TGI (MCF-7 tumors [2]; 30 mg/kg PO QD) was 99.02%, the “Tumor Size” value (MCF-7 tumors [2]; 30 mg/kg PO QD) was 170 mm^3 and the “Toxicity (body weight changes)” value (MCF-7 tumors [2]; MCF-7 tumor-bearing mice, 50 days) was “did not display toxicity”.
